According to PMC7914897, “Cytotoxic Potential of a-Azepano- and 3-Amino-3,4-SeCo-Triterpenoids” (International Journal of Molecular Sciences, 2021):

Columns and labels:
[1] = test system: UACC-257 (Melanoma); experiment: NCI-60 screen (SRB, 48 h); conditions: Homo sapiens
[2] = test system: HL-60(TB) (Leukemia); experiment: NCI-60 screen (SRB, 48 h); type: cell-based; conditions: Homo sapiens
[3] = test system: T-47D (Breast cancer); experiment: NCI-60 screen (SRB, 48 h); conditions: Homo sapiens, T47D
[4] = test system: LOX IMVI (Melanoma); experiment: NCI-60 screen (SRB, 48 h); type: cell-based; conditions: Homo sapiens
[5] = test system: SR (Leukemia); experiment: NCI-60 screen (SRB, 48 h); type: cell-based
[6] = test system: K-562 (Leukemia); experiment: NCI-60 screen (SRB, 48 h); conditions: Homo sapiens
[7] = test system: BT-549 (Breast cancer); experiment: NCI-60 screen (SRB, 48 h); type: cell-based; conditions: Homo sapiens
[8] = test system: SF-295 (CNS cancer); experiment: NCI-60 screen (SRB, 48 h); conditions: Homo sapiens
[9] = test system: NCI-H522 (NSC lung cancer); experiment: NCI-60 screen (SRB, 48 h); conditions: Homo sapiens
[10] = test system: DU-145 (Prostate cancer); experiment: NCI-60 screen (SRB, 48 h); conditions: Homo sapiens
[11] = test system: RXF 393 (Renal cancer); experiment: NCI-60 screen (SRB, 48 h); conditions: Homo sapiens
[12] = test system: OVCAR-4 (Ovarian cancer); experiment: NCI-60 screen (SRB, 48 h); type: cell-based; conditions: Homo sapiens
[13] = test system: HCT-15 (Colon cancer); experiment: NCI-60 screen (SRB, 48 h); conditions: Homo sapiens
[14] = test system: UO-31 (Renal cancer); experiment: NCI-60 screen (SRB, 48 h); conditions: Homo sapiens
[15] = test system: A498 (Renal cancer); experiment: NCI-60 screen (SRB, 48 h); conditions: Homo sapiens
[16] = test system: KM12 (Colon cancer); experiment: NCI-60 screen (SRB, 48 h); conditions: Homo sapiens
[17] = test system: Colon Cancer subpanel; experiment: NCI-60 screen, subpanel; conditions: Homo sapiens
[18] = test system: NCI/ADR-RES (Ovarian cancer); experiment: NCI-60 screen (SRB, 48 h); conditions: Homo sapiens
[19] = test system: HT29 (Colon cancer); experiment: NCI-60 screen (SRB, 48 h); conditions: Homo sapiens
[20] = test system: HCT-116 (Colon cancer); experiment: NCI-60 screen (SRB, 48 h); conditions: Homo sapiens
[21] = test system: HOP-92 (NSC lung cancer); experiment: NCI-60 screen (SRB, 48 h); conditions: Homo sapiens
[22] = test system: NSC lung cancer subpanel; experiment: NCI-60 screen, subpanel; conditions: Homo sapiens
[23] = read-out: LC50 (the source's name)

## CC1(C)CC[C@]2(CO)CC[C@]3(C)C(=CC[C@@H]4[C@@]5(C)CCCNC(C)(C)[C@@H]5CC[C@]43C)[C@@H]2C1 [Compound 3, azepanoerythrodiol]
[1]; UACC-257
  GI50: 2.49 µM
[1]; UACC-257, 48 h, read-out: TGI
  IC (TGI): 6.47 µM
[1]; UACC-257, read-out: LC50
  CC50: 27.6 µM
[2]
  GI50: 1.95 µM
[2]; [23]
  CC50: > 100 µM
[3]
  GI50: 4.08 µM
[3]; 48 h, read-out: TGI
  IC (TGI): 16.3 µM
[3]; read-out: LC50
  CC50: 48.6 µM
[4]; 48 h
  IC (TGI): 3.19 µM
[4]; 48 h, 1 dose 10 µM, read-out: Growth % of the Most Sensitive Cell Lines
  activity at 10 µM: -88.2%
[4]; read-out: GI50
  GI50: 1.68 µM
[4]; [23]
  CC50: 6.05 µM
[5]
  TGI: > 100 µM
[5]; Homo sapiens
  GI50: 2.22 µM
[5]; Homo sapiens, read-out: LC50 (the source's name)
  CC50: > 100 µM
[6]; K562
  GI50: 0.4 µM
[6]; K562, 48 h, read-out: TGI
  IC (TGI): > 100 µM
[6]; K562, read-out: LC50
  CC50: > 100 µM
[7]; BT-549
  GI50: 1.01 µM
[7]; BT-549, 48 h
  IC (TGI): 24.5 µM
[7]; BT-549, read-out: LC50 (the source's name)
  CC50: 59.2 µM
[8]; SF-295
  GI50: 1.77 µM
[8]; SF-295, 48 h, read-out: TGI
  IC (TGI): 3.62 µM
[8]; SF-295, read-out: LC50
  CC50: 7.4 µM
[9]; NCI-H522
  GI50: 2.04 µM
[9]; NCI-H522, 48 h, read-out: TGI
  IC (TGI): 4.19 µM
[9]; NCI-H522, read-out: LC50
  CC50: 8.59 µM
[10]; DU-145
  GI50: 2.3 µM
[10]; DU-145, 48 h, read-out: TGI
  IC (TGI): 4.7 µM
[10]; DU-145, read-out: LC50
  CC50: 9.61 µM
[11]; RXF 393
  GI50: 2.88 µM
[11]; RXF 393, 48 h, read-out: TGI
  IC (TGI): 11.7 µM
[11]; RXF 393, read-out: LC50
  CC50: 48.6 µM
[12]; OVCAR-4, 48 h
  IC (TGI): 17.5 µM
[12]; OVCAR-4, read-out: GI50
  GI50: 4.48 µM
[12]; OVCAR-4, read-out: LC50 (the source's name)
  CC50: 45.2 µM
[13]; HCT-15
  GI50: 3.06 µM
[13]; HCT-15, 48 h, read-out: TGI
  IC (TGI): 1.04 µM
[13]; HCT-15, read-out: LC50
  CC50: 42.3 µM
[14]; UO-31
  GI50: 10.5 µM
[14]; UO-31, 48 h, read-out: TGI
  IC (TGI): 25.5 µM
[14]; UO-31, read-out: LC50
  CC50: 62.1 µM
[15]; A498
  GI50: 16.7 µM
[15]; A498, 48 h, read-out: TGI
  IC (TGI): 38.1 µM
[15]; A498, read-out: LC50
  CC50: 86.7 µM
[16]; KM12
  GI50: 2.07 µM
[16]; KM12, 48 h, read-out: TGI
  IC (TGI): 4.26 µM
[16]; KM12, read-out: LC50
  CC50: 8.78 µM
[17]; 48 h, read-out: TGI MG_MID
  IC (TGI): 3.3 µM
[17]; read-out: GI50 MG_MID
  GI50: 1.99 µM
[17]; read-out: LC50 MG_MID
  CC50: 12.4 µM
[18]
  GI50: 10.2 µM
[18]; 48 h, read-out: TGI
  IC (TGI): 24 µM
[18]; read-out: LC50
  CC50: 56.3 µM
[19]; HT-29
  GI50: 1.59 µM
[19]; HT-29, 48 h, read-out: TGI
  IC (TGI): 3.62 µM
[19]; HT-29, read-out: LC50
  CC50: 8.23 µM
[20]; HCT-116
  GI50: 1.64 µM
[20]; HCT-116, 48 h, read-out: Growth % of the Most Sensitive Cell Lines
  activity at 10 µM: -85.8%
[20]; HCT-116, 48 h, read-out: TGI
  IC (TGI): 3.11 µM
[20]; HCT-116, read-out: LC50
  CC50: 5.92 µM
[21]; HOP-92
  GI50: 1.36 µM
[21]; HOP-92, 48 h, read-out: TGI
  IC (TGI): 30.7 µM
[21]; HOP-92, read-out: LC50
  CC50: 6.92 µM
[22]; 48 h, read-out: TGI MG_MID
  IC (TGI): 17.8 µM
[22]; read-out: GI50 MG_MID
  GI50: 2.87 µM
[22]; read-out: LC50 MG_MID
  CC50: 44.1 µM
